Calls of active or inactive are those of the source.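 How the source made its calls: active means more than half of replicate measurements showing over 20% loss of kinase signal relative to plate controls; inconclusive means some but at most half of replicates over 20% loss; inactive means no replicate over 20% signal loss.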 Bounds are passed on as bounds.

Drawing on PubChem BioAssay AID463203 (Broad Institute, 2010), this text covers AC50 for 94 molecules.

The test deals with Glycogen synthase kinase-3 alpha (Homo sapiens) (UniProt P49840). The test can be described thus: concentration-response blocking of human GSK3A – biochemical, luminescence, cell-free homogeneous, retest, dose response (AID 463203). To be noted: GSK-3 alpha enzyme, ADP-Glo luminescence, 60 min. Background: ADP-Glo turns the ADP formed in a reaction into a luminescent signal.
Chain of Glycogen synthase kinase-3 alpha (Homo sapiens) (P49840 whole entry, looked up): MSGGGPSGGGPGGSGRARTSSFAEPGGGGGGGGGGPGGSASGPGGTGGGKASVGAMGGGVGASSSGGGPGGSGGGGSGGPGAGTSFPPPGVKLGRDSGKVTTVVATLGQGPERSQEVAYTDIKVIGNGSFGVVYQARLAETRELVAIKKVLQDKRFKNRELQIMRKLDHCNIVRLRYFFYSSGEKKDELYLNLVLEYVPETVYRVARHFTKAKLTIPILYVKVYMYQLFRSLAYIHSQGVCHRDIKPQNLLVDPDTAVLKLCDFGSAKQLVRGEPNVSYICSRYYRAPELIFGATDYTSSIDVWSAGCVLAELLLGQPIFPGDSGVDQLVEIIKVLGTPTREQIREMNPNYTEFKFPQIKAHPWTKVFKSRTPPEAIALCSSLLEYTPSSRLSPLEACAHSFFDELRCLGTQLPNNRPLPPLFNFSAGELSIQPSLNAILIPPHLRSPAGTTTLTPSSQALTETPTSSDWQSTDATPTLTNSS
As to `COC1OC(COC(=O)c2ccccc2)C(OC(=O)c2ccccc2)C1OC(=O)c1ccccc1` (centres undefined), the AC50 – broadly, the concentration giving half of the maximal activity seen – was > 30 µM (inactive).

Turning to `Cc1occc1C(=O)N/N=C/c1ccc(N(C)C)cc1`, the AC50 is 23.1 µM.

On to `N#CC1=C2SCN(c3ccc(F)cc3)CN2C(=O)CC1c1cccc(F)c1` (centres undefined), for which the AC50 is 29.4 µM.

`Fc1ccc(/C=N/Nc2nccnc2Cl)cc1`: the AC50 was > 30 µM (inactive).

As for `CC(C)OC(=O)/C(C#N)=C/c1c[nH]c2ccccc12`, the AC50 was > 30 µM (inactive).

`CCc1cc2c(NCc3ccco3)ncnc2s1`: the AC50 is > 30 µM (inactive).

Regarding `Cc1ccccc1NC1=NCCCS1`, the AC50 is > 30 µM (inactive).

`C=CCn1c(O)c(C=NCCCn2ccnc2)c(=O)[nH]c1=O`: the AC50 was 14 µM.

For the molecule `CCOc1ccc(NC(=O)N(C2CCCCC2)C(C)c2cccnc2)cc1` (centres undefined), the AC50 is > 30 µM (inactive).

With `FC(F)(F)c1nnc2n1N=C(c1cccs1)CS2`, the AC50 is > 30 µM (inactive).

Regarding `Cc1nc(Nc2ccc(C(=O)O)cc2)nc(Nc2ccc(C(=O)O)cc2)c1[N+](=O)[O-]`, the AC50 was 11.7 µM.

For `FC(F)(F)COc1ccc(-c2nnc(SCc3c(Cl)cccc3Cl)o2)cn1`, the AC50 was > 30 µM (inactive).

As for `COc1cc2c(C#N)c(N3CCCC3)nc(N)c2c(N)n1`, the AC50 was > 30 µM (inactive).

Consider `COc1ccccc1N/C=C/c1onc(C)c1[N+](=O)[O-]`, for which the AC50 was > 30 µM (inactive).

For `N#CCCn1cc(/C=N/O)c(-c2ccccc2)n1`, the AC50 was > 30 µM (inactive).

As to `COc1ccc(C2=Nn3c(nnc3-c3ccncc3)SC2)cc1OC`, the AC50 was 2.37 µM.

On to `Cc1oc2c(Cl)c(Cl)c(O)c(CN(C)C)c2c1C(=O)c1ccc(Cl)cc1`, for which the AC50 is 7.71 µM.

For `CCOC(=O)c1c(C)c[nH]c1C`, the AC50 is > 30 µM (inactive).

As for `CC(C)c1onc(C(=O)N(C)C2CCCCC2)c1[N+](=O)[O-]`, the AC50 was > 30 µM (inactive).

As to `CCC(CC)c1nnc(NC(=O)CCN2C(=O)c3ccccc3C2=O)s1`, the AC50 is > 30 µM (inactive).

On to `C=CCc1cccc(/C=N/n2c(C)nnc2C)c1O`, for which the AC50 was > 30 µM (inactive).

In the case of `COc1ccc(CC(=O)NCCc2cnc[nH]2)cc1`, the AC50 is > 30 µM (inactive).

`Brc1ccc(-c2nc3ncccn3c2NC2CCCCC2)o1`: the AC50 is 2.61 µM.

For the molecule `COC(=O)c1c(C(C)=O)cnc2ccc(Br)cc12`, the AC50 was > 30 µM (inactive).

Turning to `O=[N+]([O-])c1ccc(NCCCN2CCOCC2)c(Cl)c1`, the AC50 was > 30 µM (inactive).

As to `Cc1csc(NC(=O)c2ccc3c(c2)OCO3)n1`, the AC50 is > 30 µM (inactive).

For the molecule `CCC(C)[C@H](NC(=O)Nc1ccc(S(N)(=O)=O)cc1)C(=O)O` (some centres undefined), the AC50 was > 30 µM (inactive).

Consider `Nc1nc(SCCOc2ccccc2)n[nH]1`, for which the AC50 is > 30 µM (inactive).

On to `COc1ccc(Br)cc1C(=O)Nc1cccc(NC(=O)c2ccco2)c1`, for which the AC50 was > 30 µM (inactive).

Regarding `Cc1ccc(C(=O)Nc2cccc(-c3cnc4ccccc4n3)c2)cc1`, the AC50 was > 30 µM (inactive).

As to `Cc1ccc(N2CC(C(=O)Nc3ncc([N+](=O)[O-])s3)CC2=O)cc1` (centres undefined), the AC50 was 11.4 µM.

As to `CSc1ccc(C2C3(C#N)C(N)=NC4(OCCO4)C23C#N)cc1` (centres undefined), the AC50 is > 30 µM (inactive).

Consider `COc1cccc(CNc2nc(C(F)(F)F)nc3ccccc23)c1`, for which the AC50 is > 30 µM (inactive).

Consider `Fc1ccccc1/C=N/Nc1cc(N2CCCCC2)ncn1`, for which the AC50 is > 30 µM (inactive).

As to `Cc1sc(NC(=O)CSc2nc(N)cc(N)n2)c(C#N)c1C`, the AC50 was > 30 µM (inactive).

Take `Cc1cc(NC(=O)CCSc2nc(-c3ccco3)cc(C(F)(F)F)n2)n(-c2ccccc2)n1`: the AC50 was > 30 µM (inactive).

Consider `COC(=O)[C@H]1[C@H](CCc2ccccc2)NC(=O)N(Cc2ccccc2)[C@@H]1C`, for which the AC50 was > 30 µM (inactive).

As for `COCc1nnc(NC(=O)CCN2C(=O)c3ccccc3C2=O)s1`, the AC50 was > 30 µM (inactive).

As for `COc1ccc(C2CC(=O)Nc3n[nH]c(-c4ccccc4)c32)cc1OC` (centres undefined), the AC50 is 26.9 µM.

In the case of `C/C(CC(=O)N(C(C)C)C(C)C)=N\NC(=O)COc1ccc(Br)cc1Br`, the AC50 is > 30 µM (inactive).

Consider `Cc1c(CN(C)C)c2c(n1Cc1ccccc1)C(=O)c1ccccc1-2`, for which the AC50 is > 30 µM (inactive).

For the molecule `CCSc1nc2c(c(=O)[nH]1)C(c1ccc(C)cc1)C1=C(CCCC1=O)N2` (centres undefined), the AC50 was > 30 µM (inactive).

Consider `O=C(NCCCN1CCN(Cc2ccccc2Cl)CC1)Nc1ccccc1`, for which the AC50 was > 30 µM (inactive).

With `O=C(CSc1cccs1)Nc1ccc(Cl)cc1`, the AC50 is > 30 µM (inactive).

`N/C(=N\OC(=O)c1ccco1)c1ccc(Cl)cc1`: the AC50 was > 30 µM (inactive).

In the case of `O=[N+]([O-])c1cccc(-c2ccn[nH]2)c1`, the AC50 was > 30 µM (inactive).

For the molecule `Cc1oc2ccc(O)cc2c1C(=O)c1ccc(F)cc1`, the AC50 is > 30 µM (inactive).

Turning to `O=Cc1cn(-c2ccccc2)nc1-c1ccc2c(c1)OCCO2`, the AC50 is > 30 µM (inactive).

As to `O=C(Nc1ncc([N+](=O)[O-])s1)c1ccc2c(c1)OCO2`, the AC50 was > 30 µM (inactive).

Consider `CC(CC(=O)Nc1ncc([N+](=O)[O-])s1)c1ccccc1` (centres undefined), for which the AC50 was 5.94 µM.

Turning to `COc1ccc(/C=C2\Oc3cc(OCC(=O)N4CCC[C@H]4C(=O)O)ccc3C2=O)c(OC)c1OC`, the AC50 was > 30 µM (inactive).

For `COc1ccc(-c2cc(C(=O)N3CCN(c4ccccc4OC)CC3)no2)cc1`, the AC50 is > 30 µM (inactive).

As to `CC(=O)Nc1ccc(CC#N)cc1`, the AC50 is > 30 µM (inactive).

`Cc1ccnc(NC(=O)CCC(=O)N(CC(=O)NCc2ccccc2)Cc2ccco2)c1`: the AC50 is 13.4 µM.

Take `Cn1c(O)c(C=NCCc2c[nH]c3ccccc23)c(=O)n(C)c1=O`: the AC50 is 27.9 µM.

As for `Cc1ccc(-c2nc3n(n2)Cc2ccccc2-3)cc1`, the AC50 is > 30 µM (inactive).

With `CCN(CC)CCNC(=O)c1ccc(NC(=O)C2CCN(c3ncnc4sc(C)c(C)c34)CC2)cc1`, the AC50 is 22.8 µM.

With `Cc1sc(NC(=S)NC(=O)C(C)(C)C)c(C(N)=O)c1C`, the AC50 was > 30 µM (inactive).

Consider `O=C(NCC1CCCO1)c1ccc(NC(=O)c2cccc([N+](=O)[O-])c2)cc1` (centres undefined), for which the AC50 is > 30 µM (inactive).

As to `CCOC(=O)N1CCN(C(=O)CSc2ccc3nnc(-c4ccccn4)n3n2)CC1`, the AC50 is > 30 µM (inactive).

As to `COc1ccc(-c2cn3cccnc3n2)cc1NC(=O)C1CCCC1`, the AC50 was > 30 µM (inactive).

For `CCc1c(C)c(C#N)c2nc3ccccc3n2c1NCC1CCCO1` (centres undefined), the AC50 was 12.6 µM.

Take `Cc1cccc(-c2nnc(SCc3nc4ccccc4[nH]3)n2Cc2ccco2)c1`: the AC50 is > 30 µM (inactive).

For `O=C(NCc1ccc(C(=O)N2CCC3(CC2)OCCO3)cc1)c1ccc2c(c1)OCO2`, the AC50 was > 30 µM (inactive).

In the case of `c1ccc(CN2CCN(CCCNc3ccc4nnc(-c5ccccc5)n4n3)CC2)cc1`, the AC50 was > 30 µM (inactive).

Regarding `C/C(=N\NC(=O)c1nnn(-c2nonc2N)c1CN(C)c1ccccc1)c1ccc(O)cc1`, the AC50 was > 30 µM (inactive).

As for `CCOC(=O)/C(C#N)=C/c1cn(CCC(=O)O)nc1-c1cccc(Br)c1`, the AC50 is > 30 µM (inactive).

For `CCOC(=O)c1c(NC(=O)Cc2cccs2)sc2c1CCCC2`, the AC50 was > 30 µM (inactive).

For the molecule `COC(=O)c1sc2cnccc2c1N`, the AC50 is 24.8 µM.

With `CCOC(=O)c1cnn(C)c1NC(=O)c1ccc(Cl)cc1Cl`, the AC50 is > 30 µM (inactive).

With `CN(C)c1ccc(/C=N/NC(=O)c2ccccc2Cl)cc1`, the AC50 was > 30 µM (inactive).

For `COc1ccccc1/C=C1\S/C(=N/NC(=O)c2cccc(Br)c2)NC1=O`, the AC50 is > 30 µM (inactive).

Take `O=S(=O)(Nc1ccccc1O)c1cccc2cccnc12`: the AC50 was > 30 µM (inactive).

Consider `Oc1ccc(-c2nc3ncccn3c2Nc2ccc3c(c2)OCO3)cc1`, for which the AC50 is 6.33 µM.

On to `COc1ccc2nc(NC(=O)CN3CCN(C)CC3)sc2c1`, for which the AC50 was > 30 µM (inactive).

Regarding `C=CCn1c(O)c(/C(C)=N/N2CCCCCC2)c(=O)[nH]c1=O`, the AC50 was 28.8 µM.

Take `CCN1C(=S)SC(=O)C1=C1C=C(C)N(Cc2ccco2)C(C)=C1`: the AC50 was > 30 µM (inactive).

Consider `CCNc1nc(NCC)nc(C(=O)OCCO)n1`, for which the AC50 is > 30 µM (inactive).

Consider `NC(=O)NCC12CC3CC(CC(C3)C1)C2`, for which the AC50 is > 30 µM (inactive).

`Cc1c(C(=O)N2CCOCC2)oc2ccc(S(=O)(=O)N3CCCCCC3)cc12`: the AC50 was > 30 µM (inactive).

On to `O=Cc1cn(-c2ccccc2)nc1-c1cccnc1`, for which the AC50 was > 30 µM (inactive).

Take `COc1ccc(C(=O)Nc2nc(C)cc(C)n2)cc1`: the AC50 was > 30 µM (inactive).

For `COc1ccccc1C(=O)O/N=C(\N)c1ccccn1`, the AC50 is > 30 µM (inactive).

With `Cc1ccc(CNc2ccc([N+](=O)[O-])cc2C(N)=O)cc1`, the AC50 is > 30 µM (inactive).

On to `COc1ccc(-c2ncncc2-c2ccc(OC)c(OC)c2)c(O)c1`, for which the AC50 was 10.3 µM.

On to `CCOC(=O)N1CCC(N2CCN(S(=O)(=O)c3ccc(Cl)cc3)CC2)CC1`, for which the AC50 is > 30 µM (inactive).

Consider `Oc1cc(O)cc(-c2cc3ccc(O)cc3o2)c1`, for which the AC50 is > 30 µM (inactive).

Consider `COc1ccc(-c2nc(N)n[nH]2)cc1`, for which the AC50 was > 30 µM (inactive).

With `Cn1c(N=Nc2ccccc2)nc2ccccc21`, the AC50 is 21.1 µM.

Regarding `CCn1c2ccc(Cl)cc2c2nc3ccccc3nc21`, the AC50 is > 30 µM (inactive).

Turning to `CCOc1cc(/C=N/O)ccc1OCc1ccc([N+](=O)[O-])cc1`, the AC50 is > 30 µM (inactive).

Turning to `COc1cc(C(=O)NCCC(=O)NCCN2CCOCC2)cc(OC)c1OC`, the AC50 was > 30 µM (inactive).

Take `CCOC(=O)c1nnn(-c2nonc2N)c1COc1c(C=O)cccc1OC`: the AC50 is 4.32 µM.

As to `Cc1cc(C)n(CCC(=O)N=Nc2c(O)[nH]c3ccc(Br)cc23)n1`, the AC50 was 11.5 µM.
